# Patent US20120296090A1, “Drug Repositioning Methods For Targeting Breast Tumor Initiating Cells” (The Methodist Hospital Research Institute, priority 2011, published 2012)
# Entries after “also recorded” stand apart in the source; their conditions may differ.
# How the values were obtained:
# MCF7 = conditions: cited from earlier work; for cell growth: considered dosages (<10 μM); for cell death / apoptosis: higher dosages, MCF7
# [1] = test system: HT-29, human colorectal adenocarcinoma; experiment: Cell proliferation assay (CellTiter 96 AQueous One Solution); type: cell-based; conditions: colorectal cancer cell line HT-29; 48 hours of treatment
# Method: (§1) Five tumor cell lines were used in these studies: HT-29, human colorectal adenocarcinoma; H69, human small cell lung cancer (SCLC); H226, human non-small cell lung cancer (NSCLC) (squamous carcinoma); LNCaP, human prostate carcinoma; and U87-luc glioblastoma cell line. H69, H226, and LNCaP cells were grown in American Type Culture Collection (ATCC)-formulated RPMI-1640 Medium (ATCC, cat#30-2001; […]) supplemented with 10% fetal bovine serum (FBS) and 1% penicillin/streptomycin (Invitrogen, Carlsbad, Calif., USA). HT-29 cells were cultured in ATCC-formulated McCoy's 5a Medium (Modified) (ATCC, cat#30-2007). […]
# (§2) Cell proliferation was analyzed using CellTiter 96 AQueous One Solution Cell Proliferation Assay (Promega, Madison, Wis., USA) according to the manufacturer's instructions. […] After 3-hrs' incubation, absorbance at 490 nm was measured using the FLUOstar™ Omega Microplate Reader (BMG LABTECH, Cary, N.C., USA). Background absorbance (490 nm) was corrected by subtracting the average 490 nm absorbance of the “no cell” control wells from absorbance values obtained for each of the test wells. The proliferative ratio (% surviving cells) in each sample was calculated by dividing the corrected absorbance value of treated cells by that of control cells with no drug treatment. The results were expressed as mean with standard errors from two independent studies.
# [2] = test system: H226, human non-small cell lung cancer (NSCLC); experiment: as above; type: cell-based
# Method: as §1, §2
# SUM159 cells = experiment: limiting dilution transplantation assay; type: in vivo; conditions: SUM159 cells treated overnight, transplanted 200,000 cells/mouse; vehicle control 9 of 12
# Method: (§3) The bioinformatics systems-based methods described herein also identified a further subset of ten drugs that were subsequently tested in vitro and in vivo for their ability to inhibit breast TICs. These in silico results were first confirmed by in vitro studies that evaluated the effects of these repositioned drugs on mammosphere-forming efficiency. […] Next, limiting dilution transplantation assays were performed, whereupon SUM159 cells were treated with […] overnight and then transplanted the next day 200,000 cells/mouse (single sided).
# human breast cancer TICs [3] = experiment: mammosphere formation efficiency assay on triple-negative cancer cell lines; type: cell-based; conditions: at least two triple-negative cancer cell lines
# Description: (§4) Thus, the proposed drug-repositioning platform consists of CSB model, bioinformatics software, and drug information databases. Among the twenty-one drug candidates identified in this study, three drugs, i.e., sunitinib (Sutent®, Pfizer Oncology, New York, N.Y., USA), dasatinib (Sprycel®, Bristol-Myers Squibb, Princeton, N.J., USA) and chloroquine (Aralen®, sanofi-aventis, US, LLC, Bridgewater, N.J., USA) were further analyzed for their in vitro and in vivo effects on human breast cancer TICs, and in murine xenograft models. […] As a result of this finding, dasatinib is now currently in Phase II clinical trials for advanced breast cancer to assess the efficacy of this drug for inhibiting TICs.
# breast TICs = experiment: inhibition of breast TICs in vitro and in vivo (FIG. 3, human breast cancer xenograft mammosphere formation efficiency); type: cell-based
# human breast cancer TICs [4] = experiment: dilute transplantation assay in murine xenograft models; type: in vivo
# Description: as §4
# SUM159 = experiment: mammosphere-forming efficiency (MSFE) assay; type: cell-based, human; conditions: 10 nM and 1 μM, after a single treatment dose
# Method: as §3
# BT549 = experiment: mammosphere-forming efficiency (MSFE) assay; type: cell-based, human; conditions: 10 nM and 1 μM, after a single treatment dose
# Method: as §3
SMILES,cell growth (MCF7),cell death / apoptosis (MCF7),further results
C[C@]12CC[C@@H]3c4ccc(O)cc4C[C@@H](CCCCCCCCC[S+]([O-])CCCC(F)(F)C(F)(F)F)[C@H]3[C@@H]1CC[C@@H]2O (stereo partly shown) [fulvestrant],significantly inhibited cell growth,does not induce any cell death; also recorded: did not induce the cell death,–
COc1cc2ncnc(Nc3ccc(F)c(Cl)c3)c2cc1OCCCN1CCOCC1 [gefitinib],–,–,effect on cell proliferation [1]: positive effects; effect on cell proliferation [2]: positive effects
O=C(c1ccc(OCCN2CCCCC2)cc1)c1c(-c2ccc(O)cc2)sc2cc(O)ccc12 [raloxifene],significantly inhibited cell growth,induce apoptosis at higher dosages; also recorded: induced cell death at higher dosages,–
CCN(CC)CCCC(C)Nc1ccnc2cc(Cl)ccc12 (stereo not shown) [chloroquine],–,–,tumor initiation rate (xenografts growing within 10 weeks) (SUM159 cells): 1 of 12; anti-TICs effects (mammosphere formation efficiency assay) (human breast cancer TICs [3]): anti-TICs effects; inhibiting breast TICs (breast TICs): effective in inhibiting breast TICs; anti-cancer effects in animal models (dilute transplantation assay) (human breast cancer TICs [4]): anti-cancer effects; MSFE (mammosphere-forming efficiency) (SUM159): dramatic reduction; MSFE (mammosphere-forming efficiency) (BT549): dramatic reduction
CC/C(=C(\c1ccccc1)c1ccc(OCCN(C)C)cc1)c1ccccc1 [tamoxifen],significantly inhibited cell growth,induce apoptosis at higher dosages; also recorded: induced cell death at higher dosages,–
CC(=O)O[C@H]1C(=O)[C@@]2(C)[C@H]([C@H](OC(=O)c3ccccc3)[C@]3(O)C[C@H](OC(=O)[C@H](O)[C@@H](NC(=O)c4ccccc4)c4ccccc4)C(C)=C1C3(C)C)[C@]1(OC(C)=O)CO[C@@H]1C[C@@H]2O [paclitaxel],significantly inhibited cell growth,induce apoptosis at higher dosages; also recorded: some experiments also cause the cell death,–
